Read-outs that look alike come from different tables or passages of the source.
Tests used:
Assay type in all cases: cell-based, rat
[1] = tested on: γ-IFN-increased protein/DNA complex with DRα 5′-flanking region probe; test: Gel shift (EMSA) with 137 class II probe, extracts from γ-IFN-treated FRTL-5 cells; conditions: for % inhibition of IFN-increased complex formation: 137 class II probe, γ-IFN-treated 5H cells
Procedure: Cells were grown in 6H medium with 5 % calf serum for 6-7 days to 70-80% confluence, then shifted to 5H medium with 5 % calf serum for 5 days. TSH (1×10^−10 M), gamma-interferon (100 U/ml), MMI (5 mM), and different concentrations of MMI derivatives or tautomeric cyclic thiones (0.0001 to 10 mM) were added as appropriate for […]. Cells were then harvested and extracts were made by a modification of a method of Dignam, J., et al. Methods in Enzymology, 101:582-598 (1983). In brief, cells were harvested by scraping after being washed twice with cold phosphate-buffer saline (PBS). Subsequently they were pelleted, washed in cold PBS and then pelleted again. The pellet was resuspended in Dignam buffer C (20 mM Hepes buffer at pH 7.9, 1.5 mM MgCl2, 0.42 M NaCl, 25% glycerol, 0.5 mM dithiotreitol (DTT), 0.5 mM phenylmethylsulfonylfluoride (PMSF), 1 […] pepstatin). The final NaCl concentration was adjusted on the basis of cell pellet volume to 0.42 M and cells were lysed by repeated cycles of freezing and thawing. Extracts were then centrifuged at 10,000×g at 4° C. for 20 min. The supernatant was recovered, aliquoted and stored at −70° C.
Cell extracts to perform class II gel shift studies were prepared exactly as for class I studies (Dignam et al., ibid, 582-598 (1983); Giuliani C, et al., J. Biol. Chem. 270: 11453-11462 (1995); Saji M, et al., J. Biol. Chem. 272: 20096-20107 (1997); Montani, V., et al., Endocrinology 139: 280-289 (1998a); Montani, V., et al., Endocrinology 139: 290-302 (1998b)), with the exception that the extracts were from γ-interferon treated cells, usually 100 U/ml interferon for 24 to 48 hours. Similarly, electrophoretic mobility shift assays (EMSA) were performed in the same way. Oligonucleotides used for EMSA were synthesized (Operon Technologies, Inc.) or were purified from 2 % agarose gels using either QIAEX (Qiagen, Chatsworth, Calif.) or Jet Sorb (Genomed) following restriction enzyme treatment of chimeric HLA-DRα-CAT constructs (Montani et al., 1998a, b). The oligonucleotides were dephosphorylated with calf intestinal alkaline phosphatase, labeled with […] or with [γ-^32P]ATP using T4 polynucleotide kinase, then purified on an 8% native polyacrylamide gel (Giuliani C, et al., ibid, 11453-11462 (1995); Saji M, et al., ibid, 20096-20107 (1997); Sambrook J, et al., ibid, 2:11.23-11.44 (1989); Montani, V., et al., ibid, 280-289 (1998a), 290-302 (1998b)).
Binding reactions for class II EMSA used similar conditions as well. They were carried out in a volume of 20 μl for 30 min at room temperature. The reaction mixtures contained 1.5 fmol of [^32P]DNA, 3 μg cell extract and 1.5 to 3 μg poly(di-dC) in 10 mM Tris-Cl at pH 7.9, 1 mM MgCl2, 1 mM DTT, 1 mM EDTA, and 5% glycerol. Where indicated, unlabeled double- or single-stranded oligonucleotides were added to the binding reaction as competitors and incubated with the extract for 20 min at room temperature prior to the addition of labeled DNA. Similarly, in experiments using antiserum, extracts were also incubated in the same buffer containing antiserum or normal rabbit serum for 20 min at room temperature before being processed as above. Following incubations, reaction mixtures were subjected to electrophoresis on 3.5 or 5 % native polyacrylamide gels at 160 V in 0.5xTBE, at room temperature, for 1.5 to 2 h. Gels were dried and autoradiographed at -80° C overnight unless otherwise noted.
FIG. 7 depicts the effect of MMI on the ability of γ-IFN to increase the formation of protein/DNA complexes with the […] DR α5′-flanking region probe. The radiolabeled probe is the same as that used and diagrammatically presented in FIG. 6; it contains −137 bp to +45 bp of the 5′-flanking region of DRα-CAT chimera. Extracts were from FRTL-5 rat thyroid cells grown to near confluency in TSH, maintained 6 days in SH medium, then treated with 100 U/ml γ-IFN, 5 mM MMI, or both for the last 48 h before the experiment was terminated. […]

[2] = tested on: MHC class I RNA; test: Northern analysis of MHC class I RNA levels in FRTL-5 cells; conditions: 40 hours
[3] = tested on: MHC class I antigen expression; test: Flow cytometry of IFN-increased class I antigen expression in FRTL-5 cells; conditions: 100 U/ml γ-interferon, 6H medium (TSH), 40 hours
Procedure: In this experiment 10^6 cells were incubated with MHC class II or MHC class I-specific antibodies as described (Montani, V., et al., ibid (1998b); Saji, M., et al., ibid (1992a); Balducci-Silano, P. L., et al., Endocrinology 139:2309-2313 (1998)). After 30 min on ice, cells were washed with phosphate buffered saline at pH 7.4 and incubated for 30 min with fluorescein-isothiocyanate (FITC)-conjugated antibodies then analyzed by flow cytometry on a FACScan Cytometer using CellQuest software (Becton Dickinson).
The concentration needed to achieve suppression of the interferon induced class I or class II surface expression was determined by testing different concentrations of the compounds (Table 18). Like all other assays, the order of effectiveness was compound 10>11>7 or 8>2>MMI>3.

[4] = tested on: Y box protein (TSEP-1) RNA; test: Northern analysis of Y box protein (TSEP-1) RNA levels in FRTL-5 cells; conditions: 40 hours
From the text: Whereas γ-IFN decreases Y box protein RNA levels in FRTL-5 cells, MMI can reverse this action (FIG. 16). […] The rat TSEP-1 probe was the clone 31 insert, residues 5 to 1395 of the rat TSEP-1 nucleotide sequence reported (Ohmori, M., et al., ibid (1996)); rat β-actin was kindly provided by Dr. B. Paterson (NCI, Bethesda, Md.). Radiolabeling of all probes, hybridization (0.5-1.0×10^6cpm/ml), and washing were as described (Isozaki, O., et al., ibid (1989); Saji, M., et al., ibid (1992); Ohmori, M., et al., ibid (1996)).
The ability of the compounds to reverse the γ-IFN-induced decrease in TSEP-1 RNA levels is once again 10>11>7 or 8>2>MMI>3. This mimics data in all other assays.

[5] = 1 mM, 100 U/ml γ-interferon, 6H medium (TSH)
[6] = 5 mM, 100 U/ml γ-interferon, 6H medium (TSH)
[7] = Rattus norvegicus, FRTL-5, 100 μM, 100 U/ml γ-interferon, 6H medium (TSH), read-out: % inhibition of class I RNA expression (γ-interferon-treated)
[8] = Rattus norvegicus, FRTL-5, 100 μM, basal, 5H medium, read-out: % inhibition of class I RNA expression (basal)
[9] = Rattus norvegicus, FRTL-5, 1 mM, 100 U/ml γ-interferon, 6H medium (TSH), read-out: % inhibition of class I RNA expression (γ-interferon-treated)
[10] = Rattus norvegicus, FRTL-5, 1 mM, basal, 5H medium, read-out: % inhibition of class I RNA expression (basal)

Row | SMILES | % inhibition of IFN-increased complex formation ([1]; 10 μM) | % inhibition of IFN-increased complex formation ([1]; 100 μM) | % inhibition of IFN-increased complex formation ([1]; 1 mM) | % inhibition of class I RNA expression (γ-interferon-treated) [2, 5] | % inhibition of class I RNA expression (basal) ([2]; 1 mM, basal, 5H medium) | % inhibition of class I RNA expression (γ-interferon-treated) [2, 6] | Concentration to inhibit IFN-increased antigen expression, Class I [3] | Y box protein (TSEP-1) RNA level, compound +γIFN ([4]; 100 μM compound + γIFN) | Y box protein (TSEP-1) RNA level, compound ALONE ([4]; 100 μM compound alone) | Y box protein (TSEP-1) RNA level, compound +γIFN ([4]; 1 mM compound + γIFN) | Y box protein (TSEP-1) RNA level, compound ALONE ([4]; 1 mM compound alone) | suppression of interferon-induced class II protein/DNA complexes compared with MMI (FIG. 8) ([1]; 1 mM) | inhibition at 100 µM [2, 7] | inhibition at 100 µM [2, 8] | inhibition at 1000 µM [2, 9] | inhibition at 1000 µM [2, 10] | other results
1 | Sc1ncc[nH]1 [Compound 3, 2-Mercaptoimidazole] | 0% | 0% | 0% | None | None | None | No Inhibition | 42 ± 11% | 102 ± 7% | 42 ± 5% | 94 ± 6% | – | – | – | – | – | % inhibition of IFN-increased complex formation ([1]; 5 mM): 0%; % inhibition of class I RNA expression (basal) ([2]; 5 mM, basal, 5H medium): None; Y box protein (TSEP-1) RNA level, compound +γIFN ([4]; 5 mM compound + γIFN): 47 ± 4%; Y box protein (TSEP-1) RNA level, compound ALONE ([4]; 5 mM compound alone): 100 ± 8%
2 | CSc1nccn1C [Compound 7, S-Methylmethimazole] | 0% | 16 ± 11% | 74 ± 13% | – | – | – | 424 ± 31 µM | 83 ± 10% | 111 ± 16% | 133 ± 15% | 108 ± 4% | significantly more effective suppressors than MMI | 14 ± 11% | 10 ± 8% | 40 ± 15% | 46 ± 9% | inhibition at 5000 µM ([2]; Rattus norvegicus, FRTL-5, 5 mM, 100 U/ml γ-interferon, 6H medium (TSH), read-out: % inhibition of class I RNA expression (γ-interferon-treated)): 69 ± 6%
3 | Cn1ccn(C)c1=S [Compound 8, N-Methylmethimazole] | 0% | 21 ± 18% | 86 ± 14% | 49 ± 13% | 60 ± 6% | 73 ± 12% | 356 ± 70 µM | 77 ± 6% | 119 ± 13% | 148 ± 12% | 115 ± 5% | significantly more effective suppressors than MMI | – | – | – | – | % inhibition of class I RNA expression (γ-interferon-treated) ([2]; 100 μM, 100 U/ml γ-interferon, 6H medium (TSH)): 9 ± 7%; % inhibition of class I RNA expression (basal) ([2]; 100 μM, basal, 5H medium): 14 ± 12%
4 | Cn1c(-c2ccccc2)cnc1S [Compound 10, 5-Phenylmethimazole] | 35 ± 15% | 78 ± 10% | 95 ± 16% | – | – | – | 40 ± 10 µM | 183 ± 12% | 124 ± 4% | 178 ± 10% | 122 ± 8% | – | 42 ± 14% | 60 ± 8% | 60 ± 12% | 85 ± 16% | –
